# Source: patent US9539298B2, “Lissencephaly therapeutic agent” (OSAKA CITY UNIVERSITY, priority 2010, dated 2017)
# Columns and labels:
# [1] = tested on: LIS1 heterozygous mice (Lis1+/−) embryos; assay: Apoptosis in mouse embryo brains (TUNEL staining); assay type: in vivo; conditions: 100 μg/g IP to pregnant mice on alternate days from E9.5, read at E15.5, FIG. 9
# Procedure: A neo(−)129S-Pafah1b1^tm2Awb/J homozygous male mouse lacking neo gene was mated with five homozygous EII-Cre transgenic female mice (FVB/N-Tg (EIIa-cre) C5379Lmgd/J, The Jackson Laboratory) by raising them in the same mouse cage. In total, six sets of mouse cages were prepared for the mating experiment. Plug check (confirmation of mating) was carried out every morning between 7 and 10 am, thereby determining the gestation cycle. SNJ-1945 was dissolved in dimethyl sulfoxide (DMSO) at a concentration of 100 mg/ml, and intraperitoneally injected to the pregnant mice carrying LIS1 heterozygous mice (Lis1^+/−) and the pregnant mice carrying control mice (normal mouse embryos), so that the administration amount became 100 μg per gram of body weight on alternate days from Day 9.5 of the embryonic period (E9.5). On Day 15.5 of the embryonic period (E15.5), the pregnant mice were killed by cervical fracture, and the mouse embryos were removed and immobilized for 24 hours by 4% paraformaldehyde (Wako: 162-16065). After substitution with PBS, paraffin embedding was performed by a standard method. The tissue block was cut into 5 μm pieces. Each piece was adhered to an APS-coated slide glass. After deparaffinization, 20 μg/ml proteinase K/PBS treatment was conducted for 15 minutes at room temperature, and 3% H2O2/PBS treatment was performed for ten minutes at room temperature. […]
# [2] = tested on: fibroblasts derived from human lissencephaly patient (Lis1 +/−); assay: Fluorescence immunostaining of fibroblasts derived from a human lissencephaly patient; assay type: cell-based; conditions: 200 μM, two hours
# Procedure: The establishment of fibroblasts was performed in the following manner. Under a germ-free condition, a portion of epidermis (5 mm square) was obtained from a lissencephaly patient. The obtained epidermis was transported for 4 hours at room temperature while stored in a culture solution (E-MEM (Wako Pure Chemical Industries, Ltd., 051-07615), 10% fetal bovine blood serum (Equitech-Bio Inc, SFBM30-1798, 1×L-glutamine (Gibco, 25030), 1× Pen-Strep (Gibco, 15140)) (*the culture solution with this formulation is used hereinafter). After transportation, the tissue fragment was cut into a 1 mm square, fixed to a culture flask (Becton Dickinson 353009), and cultured for three weeks in 6 ml of a culture solution. After the 3-week culture, the amplification of fibroblasts from the tissue fragment was confirmed; then, the fragment was washed with a phosphate buffer physiological saline solution (phosphate buffered saline, PBS (−), 137 mM NaCl, 2.7 mM KCl, 10 mM Na2HPO4, 1.8 mM KH2PO4, pH 7.4), and 0.5 ml of trypsin-EDTA (Gibco, 25200) was added, followed by reaction for 5 minutes at 37° C. to separate the cells. Then, 10 ml of a culture solution was added, and the fragment was transferred to a 10 cm petri dish (Greiner, 664-160) for culture.
# To observe the cells with a microscope, the cells were cultured on cover glasses. The cover glasses (24×24 No. 1, Matsunami Glass Ind., Ltd.) were immersed in 0.1 M hydrochloric acid for 20 minutes. After washing with water, the cover glasses were placed in 70% ethanol, and kept in a clean bench. In the clean bench, each cover glass was placed on the bottom of each well of a 6-well plate (Falcon 353046). After the ethanol was dried, 0.5×10^5 fibroblasts per well were added and cultured for 16 hours, thereby adhering the cells onto the cover glasses.
# A SNJ-1945-containing culture solution was prepared. […]
compound,measurement,setting,value
"COCCOCCOC(=O)N[C@@H](CC(C)C)C(=O)N[C@@H](Cc1ccccc1)C(=O)C(=O)NC1CC1 [compound 17, ((1S)-1-((((1S)-1-Benzyl-2,3-dioxo-3-(cyclopropylamino)propyl)amino)carbonyl)-3-methylbutyl)carbamic acid 5-methoxy-3-oxapentyl ester]",apoptosis in embryo brain (TUNEL),[1],significantly reduced
same,intracellular distribution of LIS1,[2]; FIGS. 15 and 16,causes LIS1 to be accumulated around the nucleus or centrosome again
same,intracellular distribution of cytoplasmatic dynein,[2]; FIGS. 17 and 18,cytoplasmatic dynein became completely diffused again from the region around the nucleus to the cell marginal zone
same,intracellular distribution of β-COP-coated vesicles,[2]; FIGS. 19 and 20,β-COP-coated vesicles became distributed evenly from the region around the nucleus to the cell marginal zone again
